Laboratory results from US20240197652A1, “KETAMINE IN THE TREATMENT OF […]” (Awakn LS Europe Holdings Limited, priority 2021, published 2024).

Key:
Format in all cases: in vivo, human
[1] = test system: subjects with gaming disorder; test: Craving for Gaming Questionnaire (CGQ), Example 9; details: for CGQ score at 2-week follow up: after 100 mg racemic ketamine sublingual; for CGQ score, pre-administration: baseline before 100 mg racemic ketamine sublingual; for % change in Craving for Gaming Questionnaire: pre-administration to 2-week follow up, 100 mg racemic ketamine sublingual
Description: A study was completed on ketamine to treat gaming disorder. Subjects were assessed for gaming disorder using the Internet Gaming Disorder Scale (IGDS) and were included if they received an IGDS score greater than 3. Three subjects in total were included (IG1-IG3). All three were administered sublingual lozenges comprising 100 mg of racemic ketamine.
The treatment protocol commenced in the same manner as disclosed in the ketamine in subjects with gambling disorder study completed in EXAMPLE 7, with the exceptions as follow: No behavioural tasks were completed. Self-report measures completed during EXAMPLE 9 included Social Phobia Inventory (SPIN), the Craving for Gaming Questionnaire (CGQ), and Generalised Anxiety Disorder-7 (GAD-7) the Sensitivity to Reward and Punishment Scale, and the Childhood Trauma Questionnaire, the Morningness-Eveningness Questionnaire (MEQ).

total plasma ghrelin = test: Total plasma ghrelin, Example 8; details: for total plasma ghrelin at 90 minutes post-lozenge / % change in total ghrelin: 100 mg racemic ketamine sublingual; for total plasma ghrelin, pre-administration: baseline before 100 mg racemic ketamine sublingual; for % change in total ghrelin: pre-administration to 90 minutes post-lozenge
Description: Blood samples were collected from all three subjects. Blood samples were analysed to determine ketamine and ketamine metabolite levels, as well as the hormones leptin and ghrelin. Self-report measures were conducted.
The treatment protocol commenced in substantially the same way as disclosed in the ketamine in subjects with gambling disorder study completed in EXAMPLE 7, with the exceptions outlined as follows: No behavioural tasks were completed. Blood samples collected every 10 minutes from the time of administration to 90 minutes post-administration were additionally analysed for leptin and ghrelin. Self-report measures included the Binge Eating Scale, the Adult Attachment Interview (AAI), a 20 question interview about the subject's recollections of their childhood (Sykes and Turner, 2015); the Childhood Trauma Questionnaire; the Morningness-Eveningness Questionnaire (MEQ), a 19-item questionnaire designed to assess when a respondent prefers to wake up or start sleep (American Thoracic Society, 2022); the DSM-5 Binge Eating Disorder diagnostic criteria; and the SPSRQ.
Changes in ghrelin and leptin were measured. Ghrelin stimulates appetite and food intake, increases fat deposition, and releases growth hormone. Obese binge eating disorder subjects often have reduced plasma ghrelin, possibly due to the downregulation of ghrelin from excess eating or body fat (Atalayer et al. 2013). Leptin forms a negative feedback loop between fat cells and the hypothalamus, wherein leptin secretion signals the hypothalamus to inhibit food intake and increase energy expenditure. Increased leptin may aid in reducing appetite cravings associated with binge eating disorder (Obradovic et al. 2021).

[2] = test system: subjects with gambling disorder; test: Cue reactivity task: picture pleasure rating and gambling desire rating, Example 7
[3] = test system: subjects with gambling disorder; test: Problem Gambling Severity Index (PGSI), Example 7; details: for PGSI score at 2-week follow up / PGSI classification at two-week follow up: after 100 mg racemic ketamine sublingual; for PGSI score, pre-administration / PGSI classification, pre-administration: baseline before 100 mg racemic ketamine sublingual; for % change in PGSI score: pre-administration to 2-week follow up, 100 mg racemic ketamine sublingual
Description: A study was completed on the use of ketamine to treat gambling disorder. Subjects were assessed for gambling disorder using the PGSI. Subjects were included if they received a PGSI score greater than 3. Five subjects in total were included (G1-G5). All five subjects were administered ketamine. Blood samples were collected from all five subjects. Blood samples were analysed to determine ketamine and ketamine metabolite levels, and each subject was assessed post-administration to determine the effectiveness of the treatment.
The study spanned a total of 30 days (not counting initial contact and prescreening). Prescreening of all subjects was conducted by phone, and subjects recorded self-report measures, including the Sensitivity to Punishment and Sensitivity to Reward Questionnaire (SPSRQ) and the Gambling Related Cognitions Questionnaire. Prior to beginning treatment, each subject completed the Beck Depression Inventory (BDI) to determine a baseline depression score. Total scores of 0-13 are minimal, 14-19 are mild, 20-28 are moderate, and 29-63 are severe (Beck, Steer, and Brown, 1996).
On Day 3, each subject returned on-site and was administered ketamine. 100 mg of racemic ketamine was administered in as sublingual lozenges.
The remaining follow-up sessions were completed online. Follow-up 1 was completed on Day 4, Follow-up 2 on Day 14, and Follow-up 3 on Day 30. At each follow-up session, the same self-report measures and behavioural tasks were completed.
The PGSI classifies potential problem gamblers in four categories based on scores. A score of 0 is a non-problem gambler, a score of between 1 and 2 is a low-risk gamber (mild), a score of 3-7 is a moderate-risk gambler (moderate), and a score of 8 or above is a problem gambler (severe). Subject G4 was classified as a moderate-risk (moderate) gambler pre-administration, and at the two-week follow up was classified as a low-risk (mild) gambler. Subject G5 was classified as a problem (severe) gambler pre-administration, and at the two-week follow up was classified as a low-risk (mild) gambler

subjects with CSBD = test: Adverse events, KSET, Example 10; details: three CSBD subjects; 100 mg racemic ketamine sublingual
[4] = baseline before 100 mg racemic ketamine sublingual
[5] = one-week follow up after 100 mg racemic ketamine sublingual
[6] = two-week follow up after 100 mg racemic ketamine sublingual

SMILES: CNC1(c2ccccc2Cl)CCCCC1=O (racemic) [ketamine, 2-(2-chlorophenyl)-2-(methylamino)-cyclohexanone]
- CGQ score at 2-week follow up ([1]; subject IG1): 28
- CGQ score, pre-administration ([1]; subject IG1): 30
- % change in Craving for Gaming Questionnaire ([1]; subject IG1): −6.67%
- CGQ score at 2-week follow up ([1]; subject IG2): 15
- CGQ score, pre-administration ([1]; subject IG2): 31
- % change in Craving for Gaming Questionnaire ([1]; subject IG2): −51.61%
- CGQ score at 2-week follow up ([1]; subject IG3): 21
- CGQ score, pre-administration ([1]; subject IG3): 45
- % change in Craving for Gaming Questionnaire ([1]; subject IG3): −53.33%
- total plasma ghrelin at 90 minutes post-lozenge (total plasma ghrelin; subject BE1): 310 pg/mL
- total plasma ghrelin, pre-administration (total plasma ghrelin; subject BE1): 254 pg/mL
- % change in total ghrelin (total plasma ghrelin; subject BE1): +22.05%
- total plasma ghrelin at 90 minutes post-lozenge (total plasma ghrelin; subject BE2): 231 pg/mL
- total plasma ghrelin, pre-administration (total plasma ghrelin; subject BE2): 198 pg/mL
- % change in total ghrelin (total plasma ghrelin; subject BE2): +16.67%
- total plasma ghrelin at 90 minutes post-lozenge (total plasma ghrelin; subject BE3): 274 pg/mL
- total plasma ghrelin, pre-administration (total plasma ghrelin; subject BE3): 291 pg/mL
- % change in total ghrelin (total plasma ghrelin; subject BE3): −5.84%
- gambling desire rating, mean [2, 4]: 2.25
- picture pleasure rating, mean [2, 4]: 3.25
- gambling desire rating, mean [2, 5]: −0.25
- picture pleasure rating, mean [2, 5]: 1.33
- gambling desire rating, mean [2, 6]: −0.25
- picture pleasure rating, mean [2, 6]: −0.83
- PGSI score at 2-week follow up ([3]; subject G1): 5
- PGSI score, pre-administration ([3]; subject G1): 4
- % change in PGSI score ([3]; subject G1): +25%
- PGSI score at 2-week follow up ([3]; subject G2): 11
- PGSI score, pre-administration ([3]; subject G2): 16
- % change in PGSI score ([3]; subject G2): −31.25%
- PGSI score at 2-week follow up ([3]; subject G3): 18
- PGSI score, pre-administration ([3]; subject G3): 21
- % change in PGSI score ([3]; subject G3): −14.29%
- PGSI classification at two-week follow up ([3]; subject G4): low-risk (mild) gambler (a score of between 1 and 2 is a low-risk gamber (mild))
- PGSI score at 2-week follow up ([3]; subject G4): 1
- PGSI classification, pre-administration ([3]; subject G4): moderate-risk (moderate) gambler (a score of 3-7 is a moderate-risk gambler (moderate))
- PGSI score, pre-administration ([3]; subject G4): 3
- % change in PGSI score ([3]; subject G4): −66.67%
- PGSI classification at two-week follow up ([3]; subject G5): low-risk (mild) gambler (a score of between 1 and 2 is a low-risk gamber (mild))
- PGSI score at 2-week follow up ([3]; subject G5): 2
- PGSI classification, pre-administration ([3]; subject G5): problem (severe) gambler (a score of 8 or above is a problem gambler (severe))
- PGSI score, pre-administration ([3]; subject G5): 11
- % change in PGSI score ([3]; subject G5): −81.82%
- course of adverse events (subjects with CSBD): All adverse events were transient, and resolved two hours post-lozenge
- overall tolerability (subjects with CSBD): well-tolerated, with no drop-outs
- unexpected adverse reactions (KSET) (subjects with CSBD): No unexpected adverse reactions were observed
